From PMC6981454, “Promising 2,6,9-Trisubstituted Purine Derivatives for Anticancer Compounds: Synthesis, 3D-QSAR, and Preliminary Biological Assays” (International Journal of Molecular Sciences, 2019)
Like-named read-outs stand apart in the source and are kept apart here.

Columns and labels:
CFPAC-1 = assay: MTT cytotoxicity assay, 72 h; type: cell-based, human; conditions: Homo sapiens, CFPAC-1, IC50 ± SD
Method: (§1) In our study, the human cancer cell lines used were CFAPC- 1 (pancreatic adenocarcinoma); NCI-H460 (large cell lung); HL-60 (acute promyelocytic leukaemia); CACO2 (colorectal adenocarcinoma); HCT-116 (colorectal carcinoma); K562 (chronic myeloid leukaemia); MCF-7 (breast adenocarcinoma); and MRC-5 control cells (normal fibroblasts).
(§2) CFAPC-1, NCI-H460 H1975, HL-60, HCT-116, CACO2, K562, MCF-7, and MCR-5 were grown and maintained in RPMI 1640 and DMEM F12 as appropriate with 10% fetal bovine serum, 100 UI/mL penicillin–streptomycin, and cultured al 37 °C in 5% CO2 humidified atmosphere. Control cultures were treated with dimethyl sulfoxide (1%) alone at the same concentration as in the purine derivatives treatment. Cell viability was determined by trypan blue dye exclusion. Cell numbers were counted in hemocytometer by light microscopy.
(§3) Cytotoxicity assays were performed by using the MTT reduction method as described in the literature. Briefly, cancer cell lines were plated in a flat-bottom 96-wells plate at 1 × 10^4 cells per well density. Then, the cells were incubated with synthetized compounds at different concentrations (from 0.1 to 100 µM) in 200 µL of 10% fetal bovine serum-RPMI or EMEM culture medium at 37 °C for 72 h. Then, 10 µL of MTT was added at a final concentration of 0.5 mg/mL, incubated at 37 °C for 4 h, and then solubilized with 10% sodium dodecyl sulphate (SDS) in 0.1 mM HCl and incubated overnight at 37 °C. Formazan formation was measured at 570 nm in a multi-well reader (StatFax 4200).

HCT-116 = assay: MTT cytotoxicity assay, 72 h; type: cell-based, human; conditions: Homo sapiens, HCT-116, IC50 ± SD
Method: as §1, §2, §3

HL-60 = assay: MTT cytotoxicity assay, 72 h; type: cell-based, human; conditions: for Selectivity Index (SI) MRC-5/HL-60: IC50 in MRC-5 / IC50 in HL-60
Method: as §1, §2, §3

K562 = assay: MTT cytotoxicity assay, 72 h; type: cell-based, human; conditions: for IC50: MTT, 72 h, IC50 ± SD; for Selectivity Index (SI) MRC-5/K562: IC50 in MRC-5 / IC50 in K562
Method: as §1, §2, §3

MCF-7 = assay: MTT cytotoxicity assay, 72 h; type: cell-based, human; conditions: for IC50: Homo sapiens, MCF7, 72 h, MTT, 72 h, IC50 ± SD; for Selectivity Index (SI) MRC-5/MCF-7: IC50 in MRC-5 / IC50 in MCF-7
Method: as §1, §2, §3

NCI-H460 = assay: MTT cytotoxicity assay, 72 h; type: cell-based, human; conditions: for Selectivity Index (SI) MRC-5/NCI-H460: IC50 in MRC-5 / IC50 in NCI-H460
Method: as §1, §2, §3

CACO2 = assay: MTT cytotoxicity assay, 72 h; type: cell-based, human; conditions: Homo sapiens, Caco-2, IC50 ± SD
Method: Cytotoxicity assays were performed by using the MTT reduction method as described in the literature [23, 37]. Briefly, cancer cell lines were plated in a flat-bottom 96-wells plate at 1 × 10^4 cells per well density. Then, the cells were incubated with synthetized compounds at different concentrations (from 0.1 to 100 µM) in 200 µL of 10% fetal bovine serum-RPMI or EMEM culture medium at 37 °C for 72 h. Then, 10 µL of MTT was added at a final concentration of 0.5 mg/mL, incubated at 37 °C for 4 h, and then solubilized with 10% sodium dodecyl sulphate (SDS) in 0.1 mM HCl and incubated overnight at 37 °C. Formazan formation was measured at 570 nm in a multi-well reader (StatFax 4200).

MRC-5 = assay: MTT cytotoxicity assay, 72 h, normal control cells; type: cell-based, human; conditions: Homo sapiens, MRC5, IC50 ± SD, normal fibroblasts
Method: as §1, §2, §3

[1] = molecular target: Hedgehog (Hh) signaling pathway; parameters: method as in PMID 24923765; conditions: cited from earlier work
cancer cell lines = conditions: cited from earlier work
HL-60 cells = assay: Cell viability by propidium iodide flow cytometry; type: cell-based, human; conditions: HL-60, 50 μM, 24 h, PI staining
Description: Next, in order to determinate the cell death type induced by the most promising compounds, we performed a flow cytometry analysis of cell viability in cell line HL-60 treated with the most promising compounds (selected according to their IC50 values and SI). The HL-60 cancer cells were chosen due to their sensitivity to prepared compounds. […] As a preliminary apoptosis filter, propidium iodide (PI) staining was used through flow cytometry analysis which discriminated a population of viable cells impermeable to PI (PI negative) from necrotic cells PI-permeable (PI positive) and apoptotic cells (the difference of the previous two). The results are shown in Figure 7, illustrating that all purine derivatives tested induced apoptosis on HL-60 cells. Around 40% of apoptotic cells were detected in a culture treated with compounds 7a and 7i, 30% by 7e, 7g, and 7h and 70% by 7d and 7j. […] (For dot plots, see Supplementary Information Figures S1–S3.)
Cell viability was analyzed by flow cytometry as previously described. In this assay, after setting the baseline to exclude cell debris, cells impermeable to propidium iodide (PI negative) are considered as viable. Two populations of PI-permeable dead cells are distinguished based on fluorescence intensity, corresponding to either hypodiploid apoptotic cells or necrotic cells with intact DNA. Here, HL60 cells were incubated with concentrations of 50 µM of each compound for 24 h at 37 °C. Cells were harvested and stained with 10 µg/mL of propidium iodide to determine cell viability. Samples containing roughly 1 × 10^4 cells were evaluated by flow cytometry (FACScanto II; Becton Dickinson, Mountain View, CA) and analyzed using FCS Express v6 software. Three independent biological replicates were performed.

pERK1/2 = assay: Western blotting of pERK1/2 in MCF-7 cells; type: cell-based, human; conditions: 10 µM, 1 h
Method: Cell lysates were prepared by harvesting cells in Laemmli sample buffer. Proteins were separated on SDS polyacrylamide gels and electroblotted onto nitrocellulose membranes. After blocking, the membranes were incubated with specific primary antibodies overnight, washed, and then incubated with peroxidase-conjugated secondary antibodies. Finally, peroxidase activity was detected with SuperSignal West Pico reagents (Thermo Scientific, Waltham, MA, USA) using a CCD camera LAS-4000 (Fujifilm). Specific antibodies were purchased from Sigma-Aldrich (anti-α-tubulin, clone DM1A; peroxidase-labeled secondary antibodies) and Cell Signaling (anti-PARP, clone 46D11; anti-ERK1/2; anti-phospho-ERK1/2 T202/Y204).

MCF7 cells = assay: Cell cycle distribution of MCF7 cells; type: cell-based, human; conditions: Figure S5
p53 = assay: p53-dependent transcriptional activity reporter assay (β-galactosidase) in Arn-8 cells; type: cell-based, human; conditions: Arn-8 cells, 24 h incubation, Table S3, control compound
Method: Table S3. Results of p53 activity of compounds 4a-u and 7a-j.
Compound fold p53 activity […]
p53-dependent transcriptional activity
To measure p53-dependent transcriptional activity, -galactosidase activity was determined in the human melanoma cell line Arn-8, stably transfected with a p53-responsive reporter construct pRGC foslacZ as described before. After 24 h incubation with the inhibitors, the cells were permeabilized with 0.3% Triton X-100 for 15 min, and then 4-methylumbelliferon-ß-D-galactopyranoside was added as a substrate to a final concentration of 80 µM. […]
fluorescence was measured at 355/460 nm (ex/em) with a Fluoroskan Ascent microplate reader […]
Figure S6. Dose-response effect of roscovitine on p53 activity in ARN8 cells (control experiment).
(1 picture or pasted object on this page, not shown here)

[2] = Homo sapiens, HL-60, 72 h, MTT, 72 h, IC50 ± SD, read-out: IC50 HL-60
[3] = Homo sapiens, NCI-H460, 72 h, MTT, 72 h, IC50 ± SD, read-out: IC50 NCI-H460
[4] = Homo sapiens, HL-60, -logIC50 in molar concentration, Table S1, read-out: Experimental pIC50 (HL-60) (converted)
[5] = Homo sapiens, NCI-H460, -logIC50 in molar concentration, Table S2, read-out: Experimental pIC50 (NCI-H460) (converted)
[6] = MTT, 72 h, IC50 ± SD, read-out: IC50 NCI-H460

SMILES	IC50 (CFPAC-1)	IC50 (HCT-116)	IC50 (HL-60; [2])	IC50 (K562; Homo sapiens, K562, 72 h)	IC50 (MCF-7)	IC50 (NCI-H460; [3])	IC50 (CACO2)	IC50 (MRC-5)	melting point	IC50 (HL-60; [4])	Selectivity Index (SI) MRC-5/HL-60 (HL-60)	also measured
CCn1cnc2c(-c3ccc(OC(F)(F)F)cc3)nc(NC3CCCC3)nc21 [4a, N-cyclopentyl-9-ethyl-6-(4-(trifluoromethoxy)phenyl)-9H-purin-2-amine]	> 100 µM	> 50 µM	38 ± 3 µM	> 25 µM	> 25 µM	> 100 µM	> 100 µM	> 100 µM	85 to 87 °C	–	–	–
CCCCn1cnc2c(-c3ccc(OC(F)(F)F)cc3)nc(NC3CCCCCC3)nc21 [4i, 9-Butyl-N-cycloheptyl-6-(4-(trifluoromethoxy)phenyl)-9H-purin-2-amine]	> 100 µM	> 50 µM	19 ± 3.9 µM	> 25 µM	> 25 µM	> 100 µM	> 100 µM	> 100 µM	72 to 74 °C	19 µM	–	–
CCCCCCn1cnc2c(-c3ccc(OC(F)(F)F)cc3)nc(NC3CCCCCC3)nc21 [4k, N-cycloheptyl-9-Hexyl-6-(4-(trifluoromethoxy)phenyl)-9H-purin-2-amine]	> 100 µM	> 50 µM	12 ± 0.6 µM	> 25 µM	> 25 µM	> 100 µM	> 100 µM	> 100 µM	68 to 70 °C	12 µM	–	–
FC(F)(F)c1ccc(N2CCN(c3nc(Cl)nc4c3ncn4C3CCCC3)CC2)nc1 [7c, 2-Chloro-9-cyclopentyl-6-(4-(5-(trifluoromethyl)pyridin-2-yl)piperazin-1-yl)-9H-purine]	> 100 µM	> 50 µM	17 ± 2.3 µM	0.4 to 1.5 µM	0.52 ± 0.05 µM	4.8 µM	> 100 µM	56 ± 1 µM	160 to 162 °C	17 µM	3.3	Selectivity Index (SI) MRC-5/K562 (K562): 143.6; IC50 (K562): 0.39 ± 0.03 µM; Selectivity Index (SI) MRC-5/MCF-7 (MCF-7): 107.7; IC50 (NCI-H460; [5]): 4.79 µM; Selectivity Index (SI) MRC-5/NCI-H460 (NCI-H460): 11.7; IC50 (NCI-H460; [6]): 4.79 ± 0.07 µM
CCCCCn1cnc2c(-c3ccc(OC(F)(F)F)cc3)nc(N3CCC(c4ccccc4)CC3)nc21 [4t, 9-Pentyl-2-(4-phenylpiperidin-1-yl)-6-(4-(trifluoromethoxy)phenyl)-9H-purine]	> 100 µM	> 50 µM	> 50 µM	> 25 µM	> 25 µM	> 100 µM	> 100 µM	> 100 µM	150 to 153 °C	–	–	–
CCNCc1ccc(C)c(NC(=O)c2ccc(Nc3nc(-c4ccc(OC(F)(F)F)cc4)c4ncn(C)c4n3)cc2)c1 [V]	–	–	–	–	–	–	–	–	–	–	–	IC50 in Gli-luciferase reporter assay [1]: nanomolar scale
FC(F)(F)c1ccc(N2CCN(c3ncnc4c3ncn4C3CCCC3)CC2)cc1 [I]	–	–	–	–	–	–	–	–	–	–	–	IC50 on some cancer cell lines (cancer cell lines): sub-micromolar
OC[C@H]1O[C@@H](n2cnc3c(N4CCN(c5ccc(C(F)(F)F)cc5)CC4)nc(Cl)nc32)[C@H](O)[C@@H]1O [II]	–	–	–	–	–	–	–	–	–	–	–	IC50 on some cancer cell lines (cancer cell lines): sub-micromolar
CCCCCn1cnc2c(-c3ccc(OC(F)(F)F)cc3)nc(NC3CCCCCC3)nc21 [4j, N-cycloheptyl-9-pentyl-6-(4-(trifluoromethoxy)phenyl)-9H-purin-2-amine]	> 100 µM	> 50 µM	< 6 µM	> 25 µM	> 25 µM	> 100 µM	> 100 µM	> 100 µM	50 to 53 °C	6 µM	> 16.7	IC50 (HL-60; MTT, 72 h, IC50 ± SD, read-out: IC50 HL-60): 6 ± 0.8 µM
COc1ccc(N2CCN(c3nc(Cl)nc4c3ncn4C3CCCC3)CC2)cc1 [7j, 2-Chloro-9-cyclopentyl-6-(4-(4-methoxyphenyl)piperazin-1-yl)-9H-purine]	> 100 µM	> 50 µM	1.5 ± 0.07 µM	3.38 ± 0.71 µM	6.61 ± 0.67 µM	< 10 µM	> 100 µM	30 ± 1 µM	–	1.5 µM	20.0	Selectivity Index (SI) MRC-5/K562 (K562): 8.8; Selectivity Index (SI) MRC-5/MCF-7 (MCF-7): 4.5; IC50 (NCI-H460; [5]): 7.08 µM; Selectivity Index (SI) MRC-5/NCI-H460 (NCI-H460): 4.2; IC50 (NCI-H460; [6]): 7.08 ± 0.22 µM; apoptotic cells (HL-60 cells): ~70%
Clc1ccc(N2CCN(c3nc(Cl)nc4c3ncn4C3CCCC3)CC2)cc1 [7g, 2-Chloro-6-(4-(4-chlorophenyl)piperazin-1-yl)-9-cyclopentyl-9H-purine]	> 100 µM	> 50 µM	0.3 ± 0.06 µM	0.71 ± 0.07 µM	0.97 ± 0.07 µM	2.2 µM	> 100 µM	2.54 ± 0.17 µM	–	0.3 µM	8.5	Selectivity Index (SI) MRC-5/K562 (K562): 3.6; Selectivity Index (SI) MRC-5/MCF-7 (MCF-7): 2.6; IC50 (NCI-H460; [5]): 2.21 µM; Selectivity Index (SI) MRC-5/NCI-H460 (NCI-H460): 1.1; IC50 (NCI-H460; [6]): 2.21 ± 0.03 µM; apoptotic cells (HL-60 cells): ~30%; level of mitogenic transducer pERK1/2 (pERK1/2): potently reduced; population of MCF7 cells in the G1-phase (MCF7 cells): slightly increased
CC[C@H](CO)Nc1nc(NCc2ccccc2)c2ncn(C(C)C)c2n1 [Roscovitine, reference compound]	–	–	–	–	–	–	–	–	–	–	–	fold p53 activity (p53): 33.9
